Source: ChEMBL document CHEMBL3272229, “Molecular properties of the adrenergic alpha receptor. 2. Optimum covalent inhibition by two different prototypes of polyamine disulfides” (J Med Chem, 1978)
Activity calls are given as the source filed them. No cut-off for these calls is given here.

Legend:
[1] = target: T1, Adrenergic receptor alpha (Rattus norvegicus) (UniProt P15823+P23944+P43140+P22086+P19328+P22909); assay: Irreversible inhibition of alpha adrenergic receptor in rat vas deferens assessed as inhibition of NE-induced contractions at 2 x 10' -5 M after 30 mins relative to [N,N'-bis(o-methoxybenzylamino-n-hexyl)cystamine; format: tissue-based
[2] = target: T1, Adrenergic receptor alpha (Rattus norvegicus); assay: Irreversible inhibition of alpha adrenergic receptor in rat vas deferens assessed as inhibition of NE-induced contractions at 2 x 10' -5 M after 30 mins relative to N1,N1'-(2,2'-disulfanediylbis(ethane-2,1-diyl))dioctane-1,8-diamine tetrahydrochloride; format: tissue-based
Cavia porcellus [3] = species: Cavia porcellus; assay: Effect on muscarinic receptor in guinea pig atrium assessed as reduction in carbachol-mediated ionotropic/chronotropic potency at 0.17 uM after 30 to 60 mins; format: tissue-based; parameters: scale not given: the % may be the effect or the level left; settings: Cardiac atrium
Cavia porcellus [4] = species: Cavia porcellus; assay: Effect on muscarinic receptor in guinea pig atrium assessed as reduction in carbachol-mediated ionotropic/chronotropic potency at 10 uM after 17 mins; format: tissue-based; settings: Cardiac atrium
[5] = target: T1, Adrenergic receptor alpha (Rattus norvegicus); assay: Irreversible inhibition of alpha adrenergic receptor in rat vas deferens assessed as inhibition of NE-induced contractions at <20 uM after 30 mins; format: tissue-based
Cavia porcellus [6] = species: Cavia porcellus; assay: Antagonist activity at alpha adrenergic receptor in guinea pig atrium assessed as inhibition of 300 uM NE-induced contractions treated at 0.147 uM; format: tissue-based; settings: Cardiac atrium
Cavia porcellus [7] = species: Cavia porcellus; assay: Antagonist activity at muscarinic receptor in guinea pig atrium assessed as reduction in butyrylcholine-induced response; format: tissue-based; settings: Cardiac atrium
Cavia porcellus [8] = species: Cavia porcellus; assay: Antagonist activity at alpha adrenergic receptor in guinea pig atrium assessed as inhibition of 30 uM NE-induced contractions treated at 0.147 uM; format: tissue-based; settings: Cardiac atrium
Cavia porcellus [9] = species: Cavia porcellus; assay: Potentiation of NE-mediated alpha adrenergic receptor activity in guinea pig atrium; format: tissue-based; settings: Cardiac atrium
Cavia porcellus [10] = species: Cavia porcellus; assay: Antagonist activity at alpha adrenergic receptor in guinea pig atrium assessed as reduction in tyramine-mediated ionotropic/chronotropic potency; format: tissue-based; settings: Cardiac atrium
Cavia porcellus [11] = species: Cavia porcellus; assay: Potentiation of NE-mediated alpha adrenergic receptor activity in guinea pig atrium at 10 to 30 uM; format: tissue-based; settings: Cardiac atrium
Oryctolagus cuniculus [12] = species: Oryctolagus cuniculus; assay: Irreversible inhibition of alpha adrenergic receptor in rabbit aortic strip assessed as inhibition of NE-induced contractions at 1 to 3 uM after 18 hrs
Oryctolagus cuniculus [13] = species: Oryctolagus cuniculus; assay: Effect on histamine receptor in potassium-contracted rabbit aortic strip assessed as change in histamine-mediated response at 10 uM after 30 mins
Cavia porcellus [14] = species: Cavia porcellus; assay: Antagonist activity at alpha adrenergic receptor in guinea pig atrium assessed as reduction in tyramine-mediated ionotropic/chronotropic potency at 10 to 30 uM; format: tissue-based; settings: Cardiac atrium
Oryctolagus cuniculus [15] = species: Oryctolagus cuniculus; assay: Effect on beta adrenergic receptor in potassium-contracted rabbit aortic strip assessed as change in isoprenaline-mediated response at 10 uM after 30 mins
Cavia porcellus [16] = species: Cavia porcellus; assay: Effect on muscarinic receptor in guinea pig atrium assessed as reduction in carbachol-mediated ionotropic/chronotropic potency at 30 uM after 26 mins; format: tissue-based; settings: Cardiac atrium
Cavia porcellus [17] = species: Cavia porcellus; assay: Antagonist activity at alpha adrenergic receptor in guinea pig atrium assessed as inhibition of 30 uM NE-induced contractions treated at 3 uM for 30 mins followed by washout; format: tissue-based; settings: Cardiac atrium
Cavia porcellus [18] = species: Cavia porcellus; assay: Effect on muscarinic acetylcholine receptor in guinea pig ileum assessed as reduction in acetylcholine-induced contractile response at 7 uM after 20 to 40 mins; format: tissue-based; parameters: scale not given: the % may be the effect or the level left
Cavia porcellus [19] = species: Cavia porcellus; assay: Antagonist activity at muscarinic receptor in guinea pig atrium assessed as reduction in butyrylcholine-induced response at 10 to 30 uM; format: tissue-based; settings: Cardiac atrium
Cavia porcellus [20] = species: Cavia porcellus; assay: Effect on muscarinic acetylcholine receptor in guinea pig ileum assessed as reduction in acetylcholine-induced contractile response treated at 30 uM for 40 mins measured after 20 mins post washout; format: tissue-based
Oryctolagus cuniculus [21] = species: Oryctolagus cuniculus; assay: Irreversible inhibition of alpha adrenergic receptor in rabbit aortic strip assessed as inhibition of NE-induced contractions at 0.3 uM after 90 mins
Oryctolagus cuniculus [22] = species: Oryctolagus cuniculus; assay: Effect on 5-HT receptor in potassium-contracted rabbit aortic strip assessed as change in 5-HT-mediated response at 10 uM after 30 mins
Cavia porcellus [23] = species: Cavia porcellus; assay: Effect on muscarinic receptor in guinea pig atrium assessed as reduction in carbachol-mediated ionotropic/chronotropic potency at 0.24 uM after 30 to 60 mins; format: tissue-based; parameters: scale not given: the % may be the effect or the level left; settings: Cardiac atrium

| SMILES | inhibition [1] | inhibition [2] | other results |
| --- | --- | --- | --- |
| c1ccc(CNCCCCCCNCCSSCCNCCCCCCNCc2ccccc2)cc1 | 90% | 90% | – |
| NCCCCCCCNCCSSCCNCCCCCCCN | 63% | 63% | – |
| NCCCCCCCCCNCCSSCCNCCCCCCCCCN | 92% | 92% | – |
| CN(CCCCCCCCN)CCSSCCN(C)CCCCCCCCN | 90% | 90% | – |
| COc1ccc(CNCCCCCCNCCSSCCNCCCCCCNCc2ccc(OC)cc2OC)c(OC)c1 | 26% | 26% | – |
| COc1cccc(CNCCCCCCNCCSSCCNCCCCCCNCc2cccc(OC)c2)c1 | 72% | 72% | – |
| COc1ccccc1CNCCCCCCNCCCCCCNCCCCCCNCc1ccccc1OC | – | – | Activity (Cavia porcellus [3]): 50%; Activity (Cavia porcellus [4]): inactive |
| NCCCCCCCCNCCSSCCNCCCCCCCCN | 100% | – | inhibition [5]: Active |
| Clc1ccccc1CNCCCCCCNCCSSCCNCCCCCCNCc1ccccc1Cl | 44% | 44% | – |
| Cc1ccccc1CNCCCCCCCCNCCSSCCNCCCCCCCCNCc1ccccc1C | 49% | 49% | – |
| C=CCOc1ccccc1CNCCCCCCNCCSSCCNCCCCCCNCc1ccccc1OCC=C | 71% | 71% | – |
| CC(COc1ccccc1)N(CCCl)Cc1ccccc1 (stereo not drawn) | – | – | inhibition (Cavia porcellus [6]): Active; inhibition (Cavia porcellus [7]): Active; inhibition (Cavia porcellus [8]): Active; Activity (Cavia porcellus [9]): Active; inhibition (Cavia porcellus [10]): Active |
| Cc1ccccc1CNCCCCCCNCCSSCCNCCCCCCNCc1ccccc1C | 69% | 69% | – |
| COc1ccccc1CNCCCCCNCCSSCCNCCCCCNCc1ccccc1OC | 59% | 59% | – |
| COc1ccccc1CNCCCCCCCCNCCSSCCNCCCCCCCCNCc1ccccc1OC | 41% | 41% | – |
| COc1cccc(CNCCCCCCNCCSSCCNCCCCCCNCc2cccc(OC)c2OC)c1OC | 26% | 26% | – |
| NCCCCCCCCCCCCNCCSSCCNCCCCCCCCCCCCN | 24% | 24% | – |
| Clc1ccccc1CNCCCCCCCNCCSSCCNCCCCCCCNCc1ccccc1Cl | 36% | 36% | – |
| COc1ccccc1CNCCCCCCNCCSSCCNCCCCCCNCc1ccccc1OC | – | 100% | Activity (Cavia porcellus [11]): inactive; inhibition (Oryctolagus cuniculus [12]): Active; Activity (Oryctolagus cuniculus [13]): inactive; inhibition (Cavia porcellus [14]): inactive; Activity (Oryctolagus cuniculus [15]): inactive; Activity (Cavia porcellus [16]): inactive; inhibition (Cavia porcellus [17]): inactive; Activity (Cavia porcellus [18]): 50%; inhibition (Cavia porcellus [19]): inactive; Activity (Cavia porcellus [20]): inactive; inhibition (Oryctolagus cuniculus [21]): Active; Activity (Oryctolagus cuniculus [22]): inactive; Activity (Cavia porcellus [23]): 50% |
| NCCCCCCCCCCNCCSSCCNCCCCCCCCCCN | 56% | 56% | – |
| COc1ccc(OC)c(CNCCCCCCNCCSSCCNCCCCCCNCc2cc(OC)ccc2OC)c1 | 76% | 76% | – |

Now from value to molecule, other results behind:

| inhibition [1] | inhibition [2] | SMILES | other results |
| --- | --- | --- | --- |
| 24% | 24% | COc1ccc(CNCCCCCCNCCSSCCNCCCCCCNCc2ccc(OC)c(OC)c2)cc1OC | – |
| 81% | 81% | COc1ccc(CNCCCCCCNCCSSCCNCCCCCCNCc2ccc(OC)cc2)cc1 | – |
| 27% | 27% | NCCCCCCNCCSSCCNCCCCCCN | – |
| 81% | 81% | CCOc1ccccc1CNCCCCCCNCCSSCCNCCCCCCNCc1ccccc1OCC | – |
| 58% | 58% | c1ccc(CNCCCCCCCNCCSSCCNCCCCCCCNCc2ccccc2)cc1 | – |
| 41% | 41% | COc1cc(CNCCCCCCNCCSSCCNCCCCCCNCc2cc(OC)cc(OC)c2)cc(OC)c1 | – |
| 56% | 56% | Cc1ccccc1CNCCCCCCCNCCSSCCNCCCCCCCNCc1ccccc1C | – |
| 98% | 98% | Oc1ccc(CNCCCCCCNCCSSCCNCCCCCCNCc2ccc(O)c(O)c2)cc1O | – |
| 71% | 71% | COc1ccccc1CNCCCCCCCNCCSSCCNCCCCCCCNCc1ccccc1OC | – |
| 48% | 48% | COc1ccccc1CNCCCCCCN(C)CCSSCCN(C)CCCCCCNCc1ccccc1OC | – |
| 39% | 39% | Clc1cccc(Cl)c1CNCCCCCCCNCCSSCCNCCCCCCCNCc1c(Cl)cccc1Cl | – |
| 10% | 10% | NCCCCCNCCSSCCNCCCCCN | – |
| 40% | 40% | Clc1cccc(Cl)c1CNCCCCCCNCCSSCCNCCCCCCNCc1c(Cl)cccc1Cl | – |
